Test results reported in patent publication US10988524B2, “Modified relaxin B chain peptides and their therapeutic use” (priority 2018, dated 2021).
Non-standard residues stand in square brackets, D forms with d. Residues, ends and D or L forms follow the SMILES beside them. Nle = CCCC[C@H](N)C(=O)O; Aib = CC(C)(N)C(=O)O

Assays:
[1] = Stability in human plasma; format: in vitro ADME; conditions: 37° C.; for Human Plasma stability % remaining, T = 0: 5 μM
Experimental: (§1) Prior to the testing of stability in plasma of a peptide batch, its purity (HPLC-UV) was determined.
(§2) Rat and Human plasma: anti-coagulant sodium or lithium heparin.
(§3) 100 μM solution of study compound in 50 mM Phosphate buffer pH 7.4.
(§4) 950 μL plasma is pre-incubated for 5 min at 37° C. 50 μL of compound stock solution is added. Final compound concentration=5 μM. Vortex and transfer 1504, plasma into an Eppendorf for each time point. The time points 0-1 and −4 h are carried out in duplicate for each species.
(§5) After incubation extract 1504, plasma with 6004, Acetonitrile containing with 1% TFA. Vortex and centrifuge 10 min at 14600 rpm. Dry 2004, supernatant under N2. Reconstitute sample in 200 μL of H2O/CH3CN 98/2+0.1% FA+50 ng/ml Labetalol and analyze using the analytical system used in solubility and stability studies.
(§6) For determination of the amount of the remaining peptide, the peak areas of the target compound at t0 and each time point […] were compared, resulting in “% remaining peptide”, following the equation
(§7) % remaining peptide=[(peak area peptide time)×100]/peak area peptide t0. The stability is expressed as “% remaining peptide”.

Stability in rat plasma = format: in vitro ADME; conditions: 37° C.; for Rat plasma stability % remaining, T = 0: 5 μM
Experimental: as §1, §2, §3, §4, §5, §6, §7

RXFP1 = target: T1, RXFP1 (Homo sapiens, UniProt Q9HBX9); test: OVCAR5 cAMP assay (RXFP1 agonist activity, HTRF); conditions: for Emax: OVCAR-5, read-out: cAMP assay in OVCAR 5 cells Emax, maximal intracellular cAMP relative to H2-relaxin in the same test occasion; for EC50: cAMP assay in OVCAR 5 cells EC50 (nM), OVCAR5 cells expressing endogenous RXFP1, cAMP by HTRF, 30 min at 37° C., 1 mM IBMX
T1 sequence (Q9HBX9 1-757): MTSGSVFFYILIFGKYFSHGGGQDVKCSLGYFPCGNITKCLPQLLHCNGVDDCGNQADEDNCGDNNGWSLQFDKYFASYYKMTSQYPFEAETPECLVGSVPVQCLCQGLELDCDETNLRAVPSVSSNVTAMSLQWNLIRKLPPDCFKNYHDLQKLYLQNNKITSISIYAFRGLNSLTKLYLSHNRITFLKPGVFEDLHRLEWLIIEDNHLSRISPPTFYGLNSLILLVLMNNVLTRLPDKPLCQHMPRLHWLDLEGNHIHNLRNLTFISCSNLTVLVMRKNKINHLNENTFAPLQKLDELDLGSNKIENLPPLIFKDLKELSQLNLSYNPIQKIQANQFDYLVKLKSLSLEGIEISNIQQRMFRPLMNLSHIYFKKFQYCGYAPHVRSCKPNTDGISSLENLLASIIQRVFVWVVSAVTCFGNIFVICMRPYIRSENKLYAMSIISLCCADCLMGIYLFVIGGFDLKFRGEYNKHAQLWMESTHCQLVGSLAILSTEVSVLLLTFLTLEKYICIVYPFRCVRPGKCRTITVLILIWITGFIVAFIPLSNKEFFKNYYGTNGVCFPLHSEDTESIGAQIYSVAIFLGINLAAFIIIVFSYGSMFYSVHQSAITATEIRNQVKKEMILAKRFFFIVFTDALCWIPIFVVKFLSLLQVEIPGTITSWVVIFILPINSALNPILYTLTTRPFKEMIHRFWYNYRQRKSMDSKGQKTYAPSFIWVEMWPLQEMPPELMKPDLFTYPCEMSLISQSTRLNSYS

CC[C@H](C)[C@H](NC(=O)[C@H](CCC(N)=O)NC(=O)[C@H](C)NC(=O)[C@H](CCCNC(=N)N)NC(=O)[C@@H](NC(=O)[C@H](CCCCN)NC(=O)[C@H](CCC(=O)O)NC(=O)[C@H](CCCNC(=N)N)NC(=O)CNC(=O)[C@H](CCC(=O)O)NC(=O)[C@H](CC(C)C)NC(C)=O)C(C)C)C(=O)NC(C)(C)C(=O)NC(C)(C)C(=O)N[C@@H](CCC(=O)O)C(=O)NCC(=O)N[C@@H](CCSC)C(=O)N[C@@H](CO)C(=O)N[C@@H](CCCCN)C(=O)N[C@@H](Cc1c[nH]c2ccccc12)C(=O)N[C@@H](CO)C(=O)N[C@@H](CCCCN)C(=O)N[C@@H](CCCNC(=N)N)C(=O)N[C@@H](CCCCN)C(=O)N[C@@H](CCCCN)C(N)=O [compound 2] (Ac-LEGREKVRAQI[Aib][Aib]EGMSKWSKRKK-NH2)
Human Plasma stability % remaining, T = 0 [1]: 100% | remaining at 1 h, 5 μM ([1]; human plasma (sodium or lithium heparin), 1 h): 80% | remaining at 4 h, 5 μM ([1]; human plasma (sodium or lithium heparin), 4 h): 79% | Rat plasma stability % remaining, T = 0 (Stability in rat plasma): 100% | remaining at 1 h, 5 μM (Stability in rat plasma; rat plasma (sodium or lithium heparin), 1 h): 57% | remaining at 4 h, 5 μM (Stability in rat plasma; rat plasma (sodium or lithium heparin), 4 h): 24% | Emax (RXFP1): 99%

Ac-VIKLSGRELVRAQIAISGMSTWSKRSL-NH2 [AcB7-33 C11.23S, reference compound]
Human Plasma stability % remaining, T = 0 [1]: 100% | Rat plasma stability % remaining, T = 0 (Stability in rat plasma): 100%

Ac-VIKLSGRELVRAQIAISGMSTWSKKKK-NH2 [KKKK(AcB7-29 C11.23S), reference compound]
Human Plasma stability % remaining, T = 0 [1]: 100% | Rat plasma stability % remaining, T = 0 (Stability in rat plasma): 100%

H-VIKLSGRELVRAQIAISGMSTWSKRSL-NH2 [B7-33 C11.23S, reference compound]
Human Plasma stability % remaining, T = 0 [1]: 100% | Rat plasma stability % remaining, T = 0 (Stability in rat plasma): 100%

CCCC[C@H](NC(=O)CNC(=O)[C@H](CCC(=O)O)NC(=O)C(C)(C)NC(=O)C(C)(C)NC(=O)[C@@H](NC(=O)[C@H](CCCCNC(C)=O)NC(=O)[C@H](C)NC(=O)[C@H](CCCNC(=N)N)NC(=O)[C@@H](NC(=O)[C@H](CCCCN)NC(=O)[C@H](CCC(=O)O)NC(=O)[C@H](CCCNC(=N)N)NC(=O)CNC(=O)[C@H](CCC(=O)O)NC(=O)[C@H](CC(C)C)NC(C)=O)C(C)C)[C@@H](C)CC)C(=O)N[C@@H](CO)C(=O)N[C@H](C(=O)N[C@@H](Cc1c[nH]c2ccccc12)C(=O)N[C@@H](CO)C(=O)N[C@@H](CCCCNC(C)=O)C(=O)N[C@@H](CCCNC(=N)N)C(=O)N[C@@H](CCCCN)C(=O)N[C@@H](CCCCN)C(N)=O)[C@@H](C)O [compound 25] (Ac-LEGREKVRAK(Ac)I[Aib][Aib]EG[Nle]STWSK(Ac)RKK-NH2)
Emax (RXFP1): 100% | EC50 (RXFP1): ≤ 5 nM

CC[C@H](C)[C@H](NC(=O)[C@H](CCC(N)=O)NC(=O)C(C)(C)NC(=O)[C@H](CCCNC(=N)N)NC(=O)[C@@H](NC(=O)[C@H](CCCCN)NC(=O)[C@H](CCC(=O)O)NC(=O)[C@H](CCCNC(=N)N)NC(=O)CNC(=O)[C@H](CCC(=O)O)NC(=O)[C@H](CC(C)C)NC(C)=O)C(C)C)C(=O)NC(C)(C)C(=O)NC(C)(C)C(=O)N[C@@H](CCC(=O)O)C(=O)NCC(=O)N[C@@H](CCSC)C(=O)N[C@@H](CO)C(=O)N[C@H](C(=O)N[C@@H](Cc1c[nH]c2ccccc12)C(=O)N[C@@H](CO)C(=O)NC(C)(C)C(=O)N[C@@H](CCCNC(=N)N)C(N)=O)[C@@H](C)O [compound 42] (Ac-LEGREKVR[Aib]QI[Aib][Aib]EGMSTWS[Aib]R-NH2)
Emax (RXFP1): 104% | EC50 (RXFP1): 251 nM

CCCC[C@H](NC(=O)CNC(=O)[C@H](CCC(=O)O)NC(=O)C(C)(C)NC(=O)C(C)(C)NC(=O)[C@@H](NC(=O)[C@H](CCC(N)=O)NC(=O)[C@H](C)NC(=O)[C@H](CCCNC(=N)N)NC(=O)[C@@H](NC(=O)[C@H](CCCCN)NC(=O)[C@H](CCC(=O)O)NC(=O)[C@H](CCCNC(=N)N)NC(=O)CNC(=O)[C@H](CCC(=O)O)NC(=O)[C@H](CC(C)C)NC(C)=O)C(C)C)[C@@H](C)CC)C(=O)N[C@@H](CO)C(=O)N[C@H](C(=O)N[C@@H](Cc1c[nH]c2ccccc12)C(=O)N[C@@H](CO)C(=O)NC(C)(C)C(=O)N[C@@H](CCCNC(=N)N)C(=O)N[C@@H](CCCCN)C(N)=O)[C@@H](C)O [compound 44] (Ac-LEGREKVRAQI[Aib][Aib]EG[Nle]STWS[Aib]RK-NH2)
Emax (RXFP1): 101%

CC[C@H](C)[C@H](NC(=O)[C@H](CCC(N)=O)NC(=O)[C@H](C)NC(=O)[C@H](CCCNC(=N)N)NC(=O)[C@@H](NC(=O)[C@H](CCCCN)NC(=O)[C@H](CCC(=O)O)NC(=O)[C@H](CCCNC(=N)N)NC(=O)CNC(=O)[C@H](CCC(=O)O)NC(=O)[C@H](CC(C)C)NC(C)=O)C(C)C)C(=O)NC(C)(C)C(=O)NC(C)(C)C(=O)N[C@@H](CCC(=O)O)C(=O)NCC(=O)N[C@@H](CCC(N)=O)C(=O)N[C@@H](CO)C(=O)N[C@H](C(=O)N[C@@H](Cc1c[nH]c2ccccc12)C(=O)N[C@@H](CO)C(=O)NC(C)(C)C(=O)N[C@@H](CCCNC(=N)N)C(=O)N[C@@H](CCCCN)C(=O)N[C@@H](CCCCN)C(N)=O)[C@@H](C)O [compound 35] (Ac-LEGREKVRAQI[Aib][Aib]EGQSTWS[Aib]RKK-NH2)
Emax (RXFP1): 98%

CC[C@H](C)[C@H](NC(=O)[C@H](CCC(N)=O)NC(=O)[C@H](C)NC(=O)[C@H](CCCNC(=N)N)NC(=O)[C@@H](NC(=O)[C@H](CCCCN)NC(=O)[C@H](CCC(=O)O)NC(=O)[C@H](CCCNC(=N)N)NC(=O)CNC(=O)[C@H](CCC(=O)O)NC(=O)[C@H](CC(C)C)NC(C)=O)C(C)C)C(=O)NC(C)(C)C(=O)NC(C)(C)C(=O)N[C@@H](CCC(=O)O)C(=O)NCC(=O)N[C@@H](CCSC)C(=O)N[C@@H](CO)C(=O)N[C@@H](CCCCN)C(=O)N[C@@H](Cc1c[nH]c2ccccc12)C(=O)N[C@@H](CO)C(=O)N[C@@H](CCCCN)C(=O)N[C@@H](CCCNC(=N)N)C(N)=O [compound 38] (Ac-LEGREKVRAQI[Aib][Aib]EGMSKWSKR-NH2)
Emax (RXFP1): 102%

CCCC[C@H](NC(=O)CNC(=O)[C@H](CCC(=O)O)NC(=O)C(C)(C)NC(=O)C(C)(C)NC(=O)[C@@H](NC(=O)[C@H](CCC(N)=O)NC(=O)[C@H](C)NC(=O)[C@H](CCCNC(=N)N)NC(=O)[C@@H](NC(=O)[C@H](CCCCN)NC(=O)[C@H](CCC(=O)O)NC(=O)[C@H](CCCNC(=N)N)NC(=O)CNC(=O)[C@H](CCC(=O)O)NC(=O)[C@H](CC(C)C)NC(C)=O)C(C)C)[C@@H](C)CC)C(=O)N[C@@H](CO)C(=O)N[C@H](C(=O)N[C@@H](Cc1c[nH]c2ccccc12)C(=O)N[C@H](C(=O)NC(C)(C)C(=O)N[C@@H](CCCNC(=N)N)C(=O)N[C@@H](CCCCN)C(=O)N[C@@H](CCCCN)C(N)=O)[C@@H](C)O)[C@@H](C)O [compound 23] (Ac-LEGREKVRAQI[Aib][Aib]EG[Nle]STWT[Aib]RKK-NH2)
Emax (RXFP1): 95%

CC[C@H](C)[C@H](NC(=O)[C@H](CCC(N)=O)NC(=O)[C@H](C)NC(=O)[C@H](CCCNC(=N)N)NC(=O)[C@@H](NC(=O)[C@H](CCCCN)NC(=O)[C@H](CCC(=O)O)NC(=O)[C@H](CCCNC(=N)N)NC(=O)CNC(=O)[C@H](CCC(=O)O)NC(=O)[C@H](CC(C)C)NC(C)=O)C(C)C)C(=O)NC(C)(C)C(=O)NC(C)(C)C(=O)N[C@@H](CCC(=O)O)C(=O)NCC(=O)N[C@@H](CCSC)C(=O)N[C@@H](CO)C(=O)N[C@@H](CCCCN)C(=O)N[C@@H](Cc1c[nH]c2ccccc12)C(=O)N[C@@H](CO)C(=O)NC(C)(C)C(=O)N[C@@H](CCCNC(=N)N)C(=O)N[C@@H](CCCCN)C(N)=O [compound 18] (Ac-LEGREKVRAQI[Aib][Aib]EGMSKWS[Aib]RK-NH2)
Emax (RXFP1): 104%

CC[C@H](C)[C@H](NC(=O)[C@H](CCC(N)=O)NC(=O)[C@H](C)NC(=O)[C@H](CCCNC(=N)N)NC(=O)[C@@H](NC(=O)[C@H](CCCCN)NC(=O)[C@H](CCC(=O)O)NC(=O)[C@H](CCCNC(=N)N)NC(=O)CNC(=O)[C@H](CCC(=O)O)NC(=O)[C@H](CC(C)C)NC(C)=O)C(C)C)C(=O)NC(C)(C)C(=O)NC(C)(C)C(=O)N[C@@H](CCC(=O)O)C(=O)NCC(=O)N[C@@H](CCSC)C(=O)N[C@@H](CO)C(=O)N[C@H](C(=O)N[C@@H](Cc1c[nH]c2ccccc12)C(=O)N[C@@H](CO)C(=O)N[C@@H](CCCCN)C(=O)N[C@@H](CCCNC(=N)N)C(N)=O)[C@@H](C)O [compound 40] (Ac-LEGREKVRAQI[Aib][Aib]EGMSTWSKR-NH2)
Emax (RXFP1): 103%
